In article PMC7763995 (Molecules, 2020):

Tests used:
Equine serum BChE [1] = target: T1, Equine serum BChE (Equus caballus, UniProt P81908); experiment: biochemical
T1 construct: equine serum BChE; purchased Sigma-Aldrich; host or cells: equine serum
Method: (§1) Measurements were performed with a FLUOStar Optima microplate reader (BMG Labtech, Ortenberg, Germany). Compounds were dissolved in DMSO, the incubation mixture contained 2% solvent.

Human erythrocyte AChE [2] = target: T2, Human erythrocyte AChE (Homo sapiens, UniProt P22303); experiment: biochemical; details: mean ± SEM, n = 3; n.a. = not active; read-out: Human Erythrocyte AChE, IC50
T2 construct: AChE from human erythrocytes was used; purchased Sigma-Aldrich; host or cells: human erythrocytes
T2 sequence (P22303 32-617 isoform P22303-2 limits assumed): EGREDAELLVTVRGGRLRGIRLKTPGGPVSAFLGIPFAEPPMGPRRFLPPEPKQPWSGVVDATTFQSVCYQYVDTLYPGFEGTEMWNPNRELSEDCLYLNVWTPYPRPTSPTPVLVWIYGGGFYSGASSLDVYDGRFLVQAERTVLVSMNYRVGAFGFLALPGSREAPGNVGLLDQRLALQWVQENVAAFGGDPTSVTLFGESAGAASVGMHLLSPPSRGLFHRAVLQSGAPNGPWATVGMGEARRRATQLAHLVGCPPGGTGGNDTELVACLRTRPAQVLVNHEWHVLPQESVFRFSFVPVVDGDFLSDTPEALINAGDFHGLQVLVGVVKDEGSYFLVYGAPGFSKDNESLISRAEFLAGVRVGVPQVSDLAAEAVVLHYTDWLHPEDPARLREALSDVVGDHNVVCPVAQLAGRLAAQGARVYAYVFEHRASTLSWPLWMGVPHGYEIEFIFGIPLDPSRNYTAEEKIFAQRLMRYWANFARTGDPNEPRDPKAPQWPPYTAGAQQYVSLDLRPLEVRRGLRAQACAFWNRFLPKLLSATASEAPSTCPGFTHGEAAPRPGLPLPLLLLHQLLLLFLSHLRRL
Method: as §1

Equine serum BChE [3] = target: T1, Equine serum BChE; experiment: Kinetic study of BChE inhibition, steady-state inhibition constants; assay type: biochemical
Method: (§2) Mechanisms of human erythrocyte AChE and equine serum BChE inhibition were assessed via a thorough analysis of enzyme kinetics. Residual activity was measured following 5 min incubation at 25°C (for temperature equilibration) with three increasing concentrations of inhibitor and six decreasing substrate concentrations. Substrate was added immediately after the 5 min incubation with inhibitor and the rates of absorption were monitored at 412 nm using a FLUOStar OPTIMA microplate reader.

mouse brain homogenate [4] = experiment: TBARS assay, spontaneous lipid peroxidation in mouse brain homogenate; details: read-out: Inhibition of Spontaneous Lipid Peroxidation in Mice Brain Homogenate, TBARS Assay, IC50
Method: (§3) The work was carried out in accordance with the EU Directive 2010/63/EU. Hybrid BDF1 mice (about 6 months old) were sacrificed by decapitation. Each brain was rapidly excised, frozen in liquid nitrogen, and stored at −80°C until use. The brains were thawed and homogenized using a Wisd WiseTis HG-15D homogenizer for 2 min in a buffer (0.01 M PBS, pH 7.4 or 0.1 M Tris-HCl, pH 7.4). Protein concentrations were determined by the Lowry method.
The procedure was performed in accordance with the method of Ohkawa et al. with minor modifications. Briefly, mouse brain homogenate (protein concentration 1 mg/mL) in PBS (0.1 M, pH 7.4) was incubated for 30 min at 37°C with tested conjugates, and the reaction was terminated by addition of 0.4 mL of 17% (w/v) trichloroacetic acid (Sigma-Aldrich). Following centrifugation for 20 min at 1300× g, 0.5 mL of 0.8% (w/v) of TBA (Sigma-Aldrich) was added to 1 mL of supernatant, heated for 30 min at 95°C and then cooled to RT. The optical density of the TBARS, which corresponds to the produced MDA, was measured at 532 nm against a blank using an Agilent Cary 60 UV-Vis spectrophotometer (Agilent, Santa Clara, CA, USA). The MDA concentration was calculated using an extinction coefficient of 1.56 × 10^5 M^−1cm^−1. Trolox and BHT were used as reference antioxidants. Compounds were dissolved in DMSO (Sigma-Aldrich) and tested in a concentration range 0.01–100 μM. All compounds were examined at least in triplicate.

Porcine liver CES = experiment: In vitro CES inhibition, 4-NPA substrate; assay type: biochemical; details: compound concentration 20 µM; n.a. = not active
Method: as §1

Human erythrocyte AChE [5] = target: T2, Human erythrocyte AChE; experiment: Kinetic study of AChE inhibition, steady-state inhibition constants; assay type: biochemical
Method: as §2

mouse brain homogenate [6] = experiment: Luminol chemiluminescence assay in mouse brain homogenate (TBHP-initiated); details: compound concentration 20 µM; mice brain homogenate
Method: as §3
Luminol-dependent chemiluminescence produced by mouse brain homogenates was measured using a 1250 Luminometer (LKB Wallac, Turku, Finland) according to the assay by Di Meo et al. with minor modifications. The reaction mixture consisted of mouse brain homogenate (protein concentration 0.1 mg/mL) in 0.1 M Tris-HCl (Sigma-Aldrich), pH 7.4, luminol (Sigma-Aldrich) (0.05 mM), TBHP (Sigma-Aldrich) (0.073 M) and tested compounds at a concentration of 20 μM. This was placed in a light-proof luminometer chamber and the background reading was recorded. All measurements were carried out at 37°C. The gain control was set to give a reading of 10 mV using a built-in standard. The free radical content in mouse brain homogenate was evaluated by the change in the light sum (the area under the kinetic curve of luminescence intensity for the entire luminescence time). All compounds were examined at least in triplicate. The effects of tested compounds were measured as the percentage decrease in the light sum relative to the control (a sample with no compound added).

EeAChE PAS = target: T3, EeAChE PAS (Electrophorus electricus, UniProt O42275); assay type: binding; details: compound concentration 20 µM
T3 construct: Electric eel AChE (EeAChE, type VI-S, lyophilized powder); purchased Sigma-Aldrich type VI-S; host or cells: electric eel
T3 sequence (O42275 24-633): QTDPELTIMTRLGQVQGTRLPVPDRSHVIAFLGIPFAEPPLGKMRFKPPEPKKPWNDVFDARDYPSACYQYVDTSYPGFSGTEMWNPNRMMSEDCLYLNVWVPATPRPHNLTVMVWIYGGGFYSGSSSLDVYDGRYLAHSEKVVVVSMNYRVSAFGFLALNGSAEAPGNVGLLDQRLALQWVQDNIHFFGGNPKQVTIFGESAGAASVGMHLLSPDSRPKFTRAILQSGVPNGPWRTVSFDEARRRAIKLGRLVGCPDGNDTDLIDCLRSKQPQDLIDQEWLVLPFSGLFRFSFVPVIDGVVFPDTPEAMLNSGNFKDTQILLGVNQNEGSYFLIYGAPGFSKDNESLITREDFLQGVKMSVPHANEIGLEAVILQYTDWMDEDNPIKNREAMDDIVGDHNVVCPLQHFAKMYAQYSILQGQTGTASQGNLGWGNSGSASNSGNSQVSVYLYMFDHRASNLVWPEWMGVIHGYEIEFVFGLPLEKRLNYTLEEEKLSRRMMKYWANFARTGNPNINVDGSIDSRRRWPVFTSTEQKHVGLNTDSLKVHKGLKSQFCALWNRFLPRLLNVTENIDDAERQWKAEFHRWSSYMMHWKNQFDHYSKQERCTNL
Method: Electric eel AChE (EeAChE, type VI-S, lyophilized powder, Sigma-Aldrich, Saint Louis, MO, USA) was used owing to its high degree of purification, high activity, and lower cost compared to human AChE.
The blank contained propidium iodide of the same concentration in 1 mM Tris-HCl buffer pH 8.0. The measurements were carried out in triplicate on a FLUOStar Optima microplate reader, and the results were calculated by formula (1):% Displacement = 100 − (IFAChE+ Propidium + inhibitor / IFAChE + Propidium) × 100(1) where IFAChE + Propidium is the fluorescence intensity of the propidium associated with AChE in the absence of the test compound (taken as 100%), and IFAChE + Propidium + inhibitor is the fluorescence intensity of the propidium associated with AChE in the presence of the test compound.

[7] = ABTS radical cation scavenging activity assay; details: 1 h incubation
Method: Radical scavenging activity of the compounds was assessed using the ABTS radical decolorization assay with some modifications. ABTS was purchased from Tokyo Chemical Industry Co., Ltd. (Tokyo, Japan), potassium persulfate (dipotassium peroxodisulfate), Trolox (6-hydroxy-2,5,7,8-tetramethychroman-2-carboxylic acid), and HPLC-grade ethanol were obtained from Sigma-Aldrich. Aqueous solutions were prepared using deionized water.
The solution of cation radical ABTS^•+ was produced by incubation of ABTS with potassium persulfate in deionized water for 12–16 h at room temperature in the dark. Radical scavenging capacity of the compounds was analyzed by mixing 10 μL of compound with 240 μL of ABTS^•+ working solution in ethanol (100 μM final concentration). The reaction was monitored for an hour with an interval of 5–10 min. Data are given for 1 h of incubation of compounds with ABTS^•+. The reduction in absorbance was measured spectrophotometrically at 734 nm using a xMark microplate UV/VIS microplate spectrophotometer (Bio-Rad, Hercules, CA, USA).
Ethanol blanks were run in each assay. Values were obtained from three replicates of each sample and three independent experiments. Standard antioxidants Trolox and BHT were used as reference compounds.
Antioxidant capacity as Trolox equivalent (TEAC) values was determined as the ratio between the slopes obtained from the linear correlation of the ABTS radical absorbance with the concentrations of tested compounds and Trolox. […] The compounds were tested in the concentration range of 0.1–100 µM.

T1 sequence (P81908 whole entry): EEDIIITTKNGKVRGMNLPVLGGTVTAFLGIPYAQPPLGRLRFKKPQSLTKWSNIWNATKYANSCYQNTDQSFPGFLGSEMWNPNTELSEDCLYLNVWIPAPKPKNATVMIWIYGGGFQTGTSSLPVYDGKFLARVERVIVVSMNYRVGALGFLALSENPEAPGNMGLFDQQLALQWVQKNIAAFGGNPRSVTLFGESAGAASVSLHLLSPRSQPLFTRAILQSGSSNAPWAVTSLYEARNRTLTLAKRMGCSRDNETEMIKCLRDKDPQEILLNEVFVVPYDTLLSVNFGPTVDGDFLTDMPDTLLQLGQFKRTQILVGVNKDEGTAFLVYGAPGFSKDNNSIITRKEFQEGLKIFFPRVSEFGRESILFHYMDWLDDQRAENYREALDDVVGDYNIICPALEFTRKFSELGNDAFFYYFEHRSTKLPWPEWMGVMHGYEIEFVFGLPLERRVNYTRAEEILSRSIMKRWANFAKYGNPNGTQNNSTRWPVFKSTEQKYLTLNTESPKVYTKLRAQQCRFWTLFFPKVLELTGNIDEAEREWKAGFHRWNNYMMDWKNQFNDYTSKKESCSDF

## CC(C)(C)c1cc(C=NCCNc2c3c(nc4ccccc24)CCCCC3)cc(C(C)(C)C)c1O [Compound 7c, 2,6-Di-tert-butyl-4-{[2-(7,8,9,10-tetrahydro-6H-cyclohepta[b]quinolin-11-ylamino)-ethylimino]-methyl}-phenol]
Equine serum BChE [1]; IC50 AChE / IC50 BChE
  Selectivity for BChE: 9.6
Equine serum BChE [1]; mean ± SEM, n = 3, n.a. = not active, read-out: Equine Serum BChE, IC50
  IC50: 0.419 ± 0.04 µM
Human erythrocyte AChE [2]
  IC50: 4.03 ± 0.03 µM
Equine serum BChE [3]; Lineweaver-Burk plots
  αKi (noncompetitive component), BChE: 0.437 ± 0.010 µM
Equine serum BChE [3]; Lineweaver-Burk plots, read-out: Ki (competitive component), BChE
  Ki: 0.164 ± 0.005 µM
Equine serum BChE [3]; changes in both Km and Vmax
  Mechanism of BChE inhibition: mixed type of reversible inhibition
Mouse brain homogenate [4]
  IC50: 10.4 ± 0.7 µM
Porcine liver CES
  Porcine Liver CES, (%) inhibition: 30.1 ± 2.5%
Human erythrocyte AChE [5]; Lineweaver-Burk plots
  αKi (noncompetitive component), AChE: 4.30 ± 0.02 µM
Human erythrocyte AChE [5]; Lineweaver-Burk plots, read-out: Ki (competitive component), AChE
  Ki: 1.58 ± 0.1 µM
Human erythrocyte AChE [5]; changes in both Km and Vmax
  Mechanism of AChE inhibition: mixed type of reversible inhibition
Mouse brain homogenate [6]
  Radical Scavenging Capacity in Luminol Chemiluminescence Assay, Luminescence Inhibition, %: 95.0 ± 0.4%
EeAChE PAS
  Displacement of Propidium from EeAChE PAS (%): 16.3 ± 1.3%
[7]
  IC50: 17.8 ± 1.6 µM
[7]; ratio of slopes test compound/Trolox
  ABTS^•+-Scavenging Activity, TEAC: 1.11 ± 0.04
